Results from ChEMBL document CHEMBL3804817, “Development of novel bis-naphthalimide derivatives and their anticancer properties” (Medchemcomm, 2016).
Activity calls are given as the source filed them. The rule behind the calls is not given here.

Tests used:
[1] = test system: HeLa; assay: Cytotoxicity against human HeLa cells after 48 hrs by MTT assay; type: functional, cell-based
[2] = test system: MCF7; assay: Cytotoxicity against human MCF7 cells after 48 hrs by MTT assay; type: functional, cell-based; details: MCF7, 48 h
[3] = Cytotoxicity against human SGC7901 cells after 48 hrs by MTT assay; type: functional, cell-based; details: SGC-7901, 48 h
[4] = test system: A549; assay: Cytotoxicity against human A549 cells after 48 hrs by MTT assay; type: functional, cell-based; details: A549, 48 h
[5] = test system: HeLa; assay: Cell cycle arrest in human HeLa cells assessed as increase in accumulation at S phase by flow cytometry; type: functional, cell-based
[6] = test system: HeLa; assay: Cell cycle arrest in human HeLa cells assessed as decrease in accumulation at G0/G1 phase phase by flow cytometry; type: functional, cell-based
[7] = test system: Mus musculus; assay: Toxicity in Balb/c mouse assessed as decrease in number of WBC at 5 to 20 mg/kg, iv measured after 24 to 96 hrs; type: organism-based; details: in vivo
[8] = test system: HeLa; assay: Cell cycle arrest in human HeLa cells assessed as accumulation at G1/G0 phase at 1 to 10 uM after 48 hrs by flow cytometry; type: functional
[9] = test system: Calf thymus DNA; assay: Induction of DNA intercalation of calf thymus DNA assessed as reduction in intensity of absorption using 0 to 6 x 10^-5 M calf thymus DNA by UV spectrophotometry; type: nucleic-acid assay; details: Bos taurus
[10] = test system: Calf thymus DNA; assay: Induction of DNA intercalation of calf thymus DNA at 1 x 10^-5 M measured at 530 nm by fluorescence spectrophotometry; type: nucleic-acid assay; details: Bos taurus
[11] = test system: Calf thymus DNA; assay: Induction of DNA intercalation of calf thymus DNA assessed as increase in intensity of absorption using > 6 x 10^-5 M calf thymus DNA by UV spectrophotometry; type: nucleic-acid assay; details: Bos taurus
[12] = test system: Calf thymus DNA; assay: Induction of DNA intercalation of calf thymus DNA assessed as increase in fluorescence intensity by fluorescence spectrophotometry; type: nucleic-acid assay; details: Bos taurus
[13] = test system: Calf thymus DNA; assay: Induction of DNA intercalation of calf thymus DNA assessed as hypsochromic shift by fluorescence spectrophotometry (reference value: 530 nanometer); type: nucleic-acid assay; details: Bos taurus
[14] = test system: Calf thymus DNA; assay: Induction of DNA intercalation of calf thymus DNA assessed as binding constant by fluorescence spectrophotometry; type: nucleic-acid assay; details: Bos taurus
[15] = test system: Calf thymus DNA; assay: Induction of DNA intercalation of calf thymus DNA assessed as increase in intensity of positive band at 275 nm at 2 x 10^-5 M by circular dichroism spectroscopy; type: nucleic-acid assay; details: Bos taurus
[16] = test system: Calf thymus DNA; assay: Induction of DNA intercalation of calf thymus DNA assessed as increase in intensity of negative band at 245 nm at 2 x 10^-5 M by circular dichroism spectroscopy; type: nucleic-acid assay; details: Bos taurus
[17] = test system: Calf thymus DNA; assay: Induction of DNA intercalation of calf thymus DNA measured at 320 to 520 nm at 2 x 10^-5 M by circular dichroism spectroscopy; type: nucleic-acid assay; details: Bos taurus
[18] = test system: Calf thymus DNA; assay: Induction of DNA intercalation of calf thymus DNA assessed as change in melting temperature at 5 x 10^-6 M by thermal denaturation analysis; type: nucleic-acid assay; details: Bos taurus
[19] = test system: HeLa; assay: Binding affinity to DNA in human HeLa cells at 2 uM after 12 hrs by confocal microscopy; type: cell-based
[20] = test system: HeLa; assay: Induction of apoptosis in human HeLa cells assessed as early apoptotic cells at 1 uM by Annexin V-FITC/propidium iodide staining-based flow cytometry (reference value: 0.05%); type: functional
[21] = test system: HeLa; assay: Induction of apoptosis in human HeLa cells assessed as early apoptotic cells at 2.5 uM by Annexin V-FITC/propidium iodide staining-based flow cytometry (reference value: 0.05%); type: functional
[22] = test system: HeLa; assay: Induction of apoptosis in human HeLa cells assessed as early apoptotic cells at 5 uM by Annexin V-FITC/propidium iodide staining-based flow cytometry (reference value: 0.05%); type: functional
[23] = test system: HeLa; assay: Induction of apoptosis in human HeLa cells assessed as early apoptotic cells at 10 uM by Annexin V-FITC/propidium iodide staining-based flow cytometry (reference value: 0.05%); type: functional
[24] = test system: HeLa; assay: Induction of apoptosis in human HeLa cells assessed as late apoptotic cells at 1 uM by Annexin V-FITC/propidium iodide staining-based flow cytometry (reference value: 0.02%); type: functional
[25] = test system: HeLa; assay: Induction of apoptosis in human HeLa cells assessed as late apoptotic cells at 2.5 uM by Annexin V-FITC/propidium iodide staining-based flow cytometry (reference value: 0.02%); type: functional
[26] = test system: HeLa; assay: Induction of apoptosis in human HeLa cells assessed as late apoptotic cells at 5 uM by Annexin V-FITC/propidium iodide staining-based flow cytometry (reference value: 0.02%); type: functional
[27] = test system: HeLa; assay: Induction of apoptosis in human HeLa cells assessed as late apoptotic cells at 10 uM by Annexin V-FITC/propidium iodide staining-based flow cytometry (reference value: 0.02%); type: functional
[28] = test system: HeLa; assay: Induction of lysosome membrane permeabilization in human HeLa cells by […] (reference value: 1.69%); type: functional
[29] = test system: HeLa; assay: Cell cycle arrest in human HeLa cells assessed as accumulation at G2/M phase at 1 to 10 uM after 48 hrs by flow cytometry; type: functional
[30] = test system: HeLa; assay: Cell cycle arrest in human HeLa cells assessed as accumulation at S phase at 1 to 10 uM after 48 hrs by flow cytometry; type: functional
[31] = test system: Mus musculus; assay: Toxicity in Balb/c mouse assessed as change in RBC at 5 to 20 mg/kg, iv measured after 24 to 96 hrs; type: organism-based; details: in vivo
[32] = test system: Mus musculus; assay: Toxicity in Balb/c mouse assessed as increase in number of platelets at 5 to 20 mg/kg, iv measured after 24 to 96 hrs; type: organism-based; details: in vivo
[33] = test system: Mus musculus; assay: Cardiotoxicity in Balb/c mouse assessed as increase in AST level at 5 to 20 mg/kg, iv measured after 24 hrs; type: toxicity, organism-based; details: in vivo
[34] = test system: Mus musculus; assay: Cardiotoxicity in Balb/c mouse assessed as increase in LDH level at 5 to 20 mg/kg, iv measured after 24 hrs; type: toxicity, organism-based; details: in vivo
[35] = test system: Mus musculus; assay: Cardiotoxicity in Balb/c mouse assessed as increase in CK level at 5 to 20 mg/kg, iv measured after 24 hrs; type: toxicity, organism-based; details: in vivo

What does the source list for `CN(C)CCN1C(=O)c2cccc3cc(N)cc(c23)C1=O` [AMONAFIDE]?
IC50 [1]: 4.36 µM; IC50 [2]: 8.02 µM; IC50 [3]: 5.32 µM; IC50 [4]: 1.59 µM; Activity [5]: Dose-dependent effect; inhibition [6]: Dose-dependent effect

Which IC50 [1] does the source give for `CN(CCCN1C(=O)c2cccc3c(N4CCC(CCO)CC4)ccc(c23)C1=O)CCCN1C(=O)c2cccc3c(N4CCC(CCO)CC4)ccc(c23)C1=O` here?
The IC50 was over 50 µM.

What about the IC50 [2] of the same compound?
Its IC50 is over 50 µM.

What about the IC50 [3] of the same compound?
Its IC50 is 3.63 µM.

And the IC50 [4]?
The IC50 was 3.2 µM.

Which Activity [7] does the source give for `CN(CCCN1C(=O)c2cccc3c(N4CCN(CCO)CC4)ccc(c23)C1=O)CCCN1C(=O)c2cccc3c(N4CCN(CCO)CC4)ccc(c23)C1=O` here?
Its Activity is “Non-toxic”.

And the Activity [8]?
Its Activity is 57.79%.

What about the IC50 [1] of the same compound?
Its IC50 is 2.31 µM.

And the IC50 [2]?
Its IC50 is 2.94 µM.

What about the IC50 [3] of the same compound?
Its IC50 is 0.88 µM.

What about the IC50 [4] of the same compound?
The IC50 was 1.21 µM.

And the Activity [9]?
Its Activity is “Active”.

And the Activity [10]?
The Activity was “Active”.

What about the Activity [11] of the same compound?
Its Activity is “Active”.

And the Activity [12]?
Its Activity is “Active”.

What about the Activity [13] of the same compound?
Its Activity is 520 nm.

And the K [14]?
The K was 1.2 ×10⁵ /M.

What about the Activity [15] of the same compound?
The Activity was “Active”.

And the Activity [16]?
Its Activity is “Active”.

And the Activity [17]?
Its Activity is “Active”.

And the ΔTm [18]?
Its ΔTm is 8 °C.

What about the Activity [19] of the same compound?
Its Activity is “Active”.

And the Activity [20]?
Its Activity is 11.72%.

What about the Activity [21] of the same compound?
Its Activity is 15.9%.

And the Activity [22]?
The Activity was 16.41%.

And the Activity [23]?
Its Activity is 41.51%.

And the Activity [24]?
The Activity was 2.09%.

What about the Activity [25] of the same compound?
The Activity was 3.21%.

And the Activity [26]?
Its Activity is 10.4%.

And the Activity [27]?
The Activity was 51.22%.

What about the Activity [28] of the same compound?
The Activity was 99.65%.

What about the Activity [29] of the same compound?
Its Activity is 3.1%.

What about the Activity [30] of the same compound?
The Activity was 29.79%.

What about the Activity [31] of the same compound?
The Activity was “Non-toxic”.

And the Activity [32]?
Its Activity is “Non-toxic”.

What about the Activity [33] of the same compound?
The Activity was “Non-toxic”.

What about the Activity [34] of the same compound?
The Activity was “Non-toxic”.

And the Activity [35]?
Its Activity is “Non-toxic”.

For `CN(CCCN1C(=O)c2cccc3c(N4CCC[C@H]4CO)ccc(c23)C1=O)CCCN1C(=O)c2cccc3c(N4CCC[C@H]4CO)ccc(c23)C1=O`, which IC50 [1] is on record?
Its IC50 is over 50 µM.

What about the IC50 [2] of the same compound?
Its IC50 is 9.07 µM.

And the IC50 [3]?
Its IC50 is 2.3 µM.

What about the IC50 [4] of the same compound?
Its IC50 is 3.05 µM.

For `CN(CCCN1C(=O)c2cccc3c(N4CCC[C@@H]4CO)ccc(c23)C1=O)CCCN1C(=O)c2cccc3c(N4CCC[C@@H]4CO)ccc(c23)C1=O`, which IC50 [1] is on record?
Its IC50 is over 50 µM.

And the IC50 [2]?
The IC50 was over 50 µM.

And the IC50 [3]?
Its IC50 is 4.46 µM.

What about the IC50 [4] of the same compound?
The IC50 was 4.71 µM.

With `CN(CCCN1C(=O)c2cccc3c(N4CC[C@H](O)C4)ccc(c23)C1=O)CCCN1C(=O)c2cccc3c(N4CC[C@H](O)C4)ccc(c23)C1=O` as the compound, how does the IC50 [1] read?
Its IC50 is 1.05 µM.

What about the IC50 [2] of the same compound?
The IC50 was 14 µM.

What about the IC50 [3] of the same compound?
Its IC50 is 2.47 µM.

What about the IC50 [4] of the same compound?
The IC50 was 0.6 µM.

Which results are given for `CN(CCCN1C(=O)c2cccc3c(N4CC[C@@H](O)C4)ccc(c23)C1=O)CCCN1C(=O)c2cccc3c(N4CC[C@@H](O)C4)ccc(c23)C1=O`?
IC50 [1]: 3.65 µM; IC50 [2]: 32.9 µM; IC50 [3]: 23.2 µM; IC50 [4]: 1.59 µM
